Measured values as given in patent publication US20040029889A1, “Heteroaryl alkyl piperazine derivatives as fatty acid oxidation inhibitors” (priority 2000, published 2004).

Columns and labels:
[1] = test system: mitochondrial fatty acid oxidation using palmitoyl CoA as substrate; assay: Palmitoyl CoA oxidation in isolated rat heart mitochondria; type: biochemical; conditions: 1-C14 palmitoyl CoA substrate, 15 min at 30° C., vs DMSO control; for Inhibition of mitochondrial fatty acid oxidation, % of Control, 50 μm (%): 50 μm compound; for Inhibition of mitochondrial fatty acid oxidation, % of Control, 100 μm (%): 100 μm compound
Procedure: Rat heart mitochondria were isolated by the method of Nedergard and Cannon (Methods in Enzymol. 55, 3, 1979).
Palmitoyl CoA oxidation—The Palmityl CoA oxidation was carried out in a total volume of 100 micro liters containing the following agents: 110 mM KCl, 33 mM Tris buffer at pH 8, 2 mM KPi, 2 MM MgCl2, 0.1 MM EDTA, 14.7 microM defatted BSA, 0.5 mM malic acid, 13 mM carnitine, 1 mM ADP, 52 micrograms of mitochondrial protein, and 16 microM 1-C14 palmitoyl CoA (Sp. Activity 60 mCi/mmole; 20 microCi/ml, using 5 microliters per assay). The compounds of this invention were added in a DMSO solution at the following concentrations: 100 microM, and 50 microM. In each assay, a DMSO control was used. After 15 min at 30° C., the enzymatic reaction was centrifuged (20,000 g for 1 min), and 70 microliters of the supernatant was added to an activated reverse phase silicic acid column (approximately 0.5 ml of silicic acid). The column was eluted with 2 ml of water, and 0.5 ml of the eluent was used for scintillation counting to determine the amount of C^14 trapped as C^14 bicarbonate ion.

[2] = Metabolic stability in human liver S-9 fractions; type: in vitro ADME; conditions: % parent remaining after 30 min at 37 C divided by average % ranolazine remaining (57%), >1.2 better, 0.8-1.2 equivalent, <0.8 less stable than ranolazine
Procedure: Metabolic Stability: As a measure of metabolic stability the compounds of this invention were incubated with human liver S-9 microsomal fractions. After, 30 minutes at 37 C, the amount of parent drug remaining was determined using LC-mass spec. The response factors for each compound was determined by establishing a standard curve and using an internal standard during the analysis of the samples. An average of five experiments for percentage of ranolazine remaining at the 30 minute time point is 57%. The compounds of this invention were assayed as described in the protocol below and the percentage of parent remaining was divided by the average % of ranolazine remaining (57%) affording a metabolic stability factor. A compound with a stability number greater than 1.2 has a better stability than ranolazine in the liver S-9 assay. A compound with a stability number between 1.2 and 0.8 has an equivalent stability in the liver S-9 assay.
The purpose of this experiment is to compare the percentages remaining for compounds of this invention with the percentage remaining for ranolazine after 30 minutes of incubation with human liver S9 fractions.
The following reagents were used; Potassium phosphate, 0.5M pH 7.4 (incubation buffer), kept at room temperature; 0.05M MgCl2 kept at 4° C.; β-Nicotinamide adenine dinucleotide phosphate, tetrasodium salt, reduced form (NADPH), 0.02M solution in water (˜16.6 mg/mL) from Sigma Lot # 79H7044 prepared on day of use. 1 mM of ranolazine or Compounds 43, 45, 47, 52, 70, 74, 76, 78, and 80 in ACN further diluted to obtain 100 μM in 10% ACN; Human S9 stock: 20 mg/mL from Gentest.
Incubation mixtures were prepared as follows:
Combine all components with incubation buffer and re-pipette 200 μL/tube+25 μL of the compound being tested along with 25 μL of S-9.
After 5 min of pre-incubation at 37° C., at 0 and 30 min after starting the reaction, a 50 μl aliquot of the incubation mixture was removed and added to 100 μL of 9:1 acetonitrile: methanol containing the internal standard.
The mixture was centrifuged and a 100 μL aliquot of the supernatant was diluted in 1 mL of solvent C (0.1% Formic Acid in water). Then samples were analyzed for change between the ratio of compound to internal standard at time zero and 30 minutes by LC/MS (injected 10 μL).
Samples were analyzed for the starting compounds and potential metabolite/s by LC/MS using an internal standard and an ODS-C18 column with a flow rate of 0.25 ml/min.

Liver S9 Stability Factor [2]	Compound	Inhibition of mitochondrial fatty acid oxidation, % of Control, 50 μm (%) [1]	Inhibition of mitochondrial fatty acid oxidation, % of Control, 100 μm (%) [1]
–	Cc1cccc(C)c1NC(=O)CN1CCN(CC(O)COc2ccc3oc(-c4cccc(C(F)(F)F)c4)nc3c2)CC1 (centres unmarked) [Compound 7, N-(2,6-dimethyl-phenyl)-2-(4-{2-hydroxy-3-[2-(3-trifluoromethylphenyl)benzoxazol-5-yloxy]-propyl}-piperazin-1-yl)acetamide]	77%	–
–	Cc1cccc(C)c1NC(=O)CN1CCN(CC(O)CNc2nc3ccccc3s2)CC1 (centres unmarked) [Compound 39, 2-{4-[3-(benzothiazol-2-ylamino)-2-hydroxypropyl]piperazinyl}-N-(2,6-dimethylphenyl)acetamide]	–	27%
0.6	Cc1cccc(C)c1NC(=O)CN1CCN(CC(O)COc2nc3ccccc3s2)CC1 (centres unmarked) [Compound 43, 2-{4-[3-(benzothiazol-2-yloxy)-2-hydroxy-propyl]-piperazin-1-yl}-N-(2,6-dimethylphenyl)acetamide]	–	21%
0.8	Cc1nc2cc(OCC(O)CN3CCN(CC(=O)Nc4c(C)cccc4C)CC3)ccc2s1 (centres unmarked) [Compound 45]	–	87%
1.1	Cc1cccc(C)c1NC(=O)CN1CCN(CC(O)COc2cccc3[nH]c(C(N)=O)cc23)CC1 (centres unmarked) [Compound 46]	–	61%
1.5	Cc1cccc(C)c1NC(=O)CN1CCN(CC(O)COc2ccc3ncsc3c2)CC1 (centres unmarked) [Compound 47, 2-{4-[3-(benzothiazol-6-yloxy)2-hydroxy-propyl]-piperazin-1-yl}-N-(2,6-dimethylphenyl)-acetamide]	–	70%
–	Cc1nc2ccc(OCC(O)CN3CCN(CC(=O)Nc4c(C)cccc4C)CC3)cc2s1 (centres unmarked) [Compound 49, N-(2,6-dimethylphenyl)-2-{4-[2-hydroxy-3-(2-methyl-benzothiazol-6-yloxy)-propyl]-piperazin-1-yl}aceamide]	–	3%
0.5	Cc1nc2cc(OCC(O)CN3C(C)CN(CC(=O)Nc4c(C)cccc4C)CC3C)ccc2s1 (centres unmarked) [Compound 52, N-(2,6-dimethylphenyl)-2-{4-[2-hydroxy-3-(2-methyl-benzothiazol-5-yloxy)-propyl]-3,5-dimethyl-piperazine-1-yl}acetamide]	–	95%
–	Cc1nc2cc(OCC(O)CN3CCN(CC(=O)Nc4ccc(O)cc4)CC3)ccc2s1 (centres unmarked) [Compound 54, 2-{14-[2-hydroxy-3-(2-methyl-benzothiazol-5-yloxy)-propyl]-piperazin-1-yl}-N-(4-hydroxy-phenyl)acetamide]	–	81%
–	Cc1cccc(C)c1NC(=O)CN1CCN(CC(O)COc2ccc3oc(-c4ccccc4)nc3c2)CC1 (centres unmarked) [Compound 60, N-(2,6-dimethylphenyl)-2-{4-[2-hydroxy-3-(2-phenyl-benzoxazol-5-yloxy)-propyl)-piperazin-1-yl}acetamide]	61%	–
–	Cc1cccc(C)c1NC(=O)CN1CCN(CC(O)COc2cccc3nc(-c4ccccc4)sc23)CC1 (centres unmarked) [Compound 62]	62%	–
–	Cc1nc2cc(OCC(O)CN3CCN(CC(=O)Nc4c(C)cccc4C)C(=O)C3)ccc2s1 (centres unmarked) [Compound 64, N-(2,6-dimethylphenyl)-2-{4-[2-hydroxy-3-(2-methyl-benzothiazol-5-yloxy)-propyl]-2-oxo-piperazin-1-yl}acetamide]	–	41%
–	Cc1cccc(C)c1NC(=O)CN1CCN(CC(O)COc2ccc3oc(-c4ccc(C(F)(F)F)cc4)nc3c2)CC1 (centres unmarked) [Compound 68, N-(2,6-dimethylphenyl)-2-(4-{2-hydroxy-3-[2-(4-trifluoromethyl-phenyl)-benzoxazol-5-yloxy]-propyl}-piperazin-1-yl)acetamide]	68%	–
0.1	Cc1cccc(C)c1NC(=O)CN1CCN(CC(O)COc2cnc3ccccc3n2)CC1 (centres unmarked) [Compound 70, N-(2,6-dimethylphenyl)-2-{4-[2-hydroxy-3-(quinoxalin-2-yloxy)-propyl]-piperazin-1-yl}acetamide]	–	–
–	Cc1cccc(C)c1NC(=O)CN1CCN(CC(O)COc2cccnc2)CC1 (centres unmarked) [Compound 72, N-(2,6-dimethylphenyl)-2-{4-[2-hydroxy-3-(pyridin-3-yloxy)-propyl]-piperazin-1-yl}acetamide]	–	8%
1.0	Cc1cccc(C)c1NC(=O)CN1CCN(CC(O)COc2ccnc3ccccc23)CC1 (centres unmarked) [Compound 74, N-(2,6-dimethylphenyl)-2-{4-[2-hydroxy-3-(quinolin-4-yloxy)-propyl]-piperazin-1-yl}acetamide]	–	12%
0.8	Cc1cccc(C)c1NC(=O)CN1CCN(CC(O)COc2cccc3cnccc23)CC1 (centres unmarked) [Compound 76, N-(2,6-dimethylphenyl)-2-{4-[2-hydroxy-3-(isoquinolin-5-yloxy)-propyl]-piperazin-1-yl}acetamide]	–	26%
0.6	Cc1cccc(C)c1NC(=O)CN1CCN(CC(O)COc2ccc3ncccc3c2)CC1 (centres unmarked) [Compound 78]	–	42%
0.5	Cc1ccc2ccc(OCC(O)CN3CCN(CC(=O)Nc4c(C)cccc4C)CC3)cc2n1 (centres unmarked) [Compound 80, N-(2,6-dimethylphenyl)-2-{4-[2-hydroxy-3-(2-methyl-quinolin-7-yloxy)-propyl]-piperazin-1-yl}acetamide]	–	22%
–	Cc1cccc(C)c1NC(=O)CN1CCN(CC(O)CNc2nc3ccccc3o2)CC1 (centres unmarked) [Compound 82, 2-{4-[3-(benzoxazol-2-ylamino)-2-hydroxypropyl]piperazinyl}-N-(2,6-dimethylphenyl)acetamide]	–	22%
